# Reference: patent EP0523675A1, “Inhibitory agent against HIV superinfection” (priority 1991, dated 1993)
# Where no end group is shown, it is not given here.
# Tested on: HTLV-IIIB virus (superinfection of L-2 cells)
# Experiment: Inhibition of superinfection of L-2 cells with HTLV-IIIB, fluorescent antibody technique using V-17 (anti-p18) antibody
# Format: cell-based, HIV (Human Immunodeficiency Virus)
# Conditions: peptide final concentration 1 mg/ml, mixed with HTLV-IIIB virus liquid M.O.I. = 3.2 for 30 min at room temperature, then inoculated into L-2 cells; checked every 4 days; Fig. 2
sequence,measurement,value
TKGPSKLNDRADSRRS [CD4 peptide (45-60)],inhibitory effect on superinfection,not at all observed
